The record followed here is patent publication US11446287B2, “Compounds and methods for EP300 or CBP modulation and indications therefor” (Opna Immuno-Oncology SA, priority 2019, dated 2022).

Each structure is given as a SMILES string.

The test has as its target T1, Recombinant human CBP containing the bromodomain (CBP-BD (1043-1159)) (Homo sapiens, UniProt Q92793).
T1 construct: Recombinant human CBP bromodomain (CBP-BD (1043-1159)); made in house; host or cells: E. coli BL21-CodonPlus (DE3), modified pET vector
Kind of test: CBP Alphascreen binding assay. The note with it: read-out: CREBBP (CBP) IC50. A digest of the protocol: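 Buffer: 50 mM HEPES pH 7.5, 50 mM NaCl, 0.01% BSA, 0.01% Triton X-100, 2 mM DTT. The signal was normalised to plate controls and fitted with a four-parameter curve to give IC50.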
For orientation: In Alpha technology, singlet oxygen from a donor bead excites a nearby acceptor bead.

For orientation: IC50 means the midpoint of a concentration-inhibition curve.

T1 sequence (Q92793 1081-1197): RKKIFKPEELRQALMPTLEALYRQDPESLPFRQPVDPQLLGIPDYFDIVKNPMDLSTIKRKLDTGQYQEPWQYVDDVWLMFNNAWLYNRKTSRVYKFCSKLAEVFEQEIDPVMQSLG

In the case of `Cc1noc(C)c1-c1cnc2c(c1)c(-c1ccc(C(=O)O)cc1)cn2[C@@H](C)c1ccccn1` [P-0001, (S)-4-(5-(3,5-dimethylisoxazol-4-yl)-1-(1-(pyridin-2-yl)ethyl)-1H-pyrrolo[2,3-b]pyridin-3-yl)benzoic acid], the 50% inhibitory concentration (IC50) lay within 0.0001 to 1 µM.
The value for `Cc1noc(C)c1-c1cnc2c(c1)c(-c1ccc(C(=O)O)cc1)cn2C(c1ccccn1)C1CCCC1` (stereo not shown) [P-0002, 4-(1-(cyclopentyl(pyridin-2-yl)methyl)-5-(3,5-dimethylisoxazol-4-yl)-1H-pyrrolo[2,3-b]pyridin-3-yl)benzoic acid] was 0.0001 to 1 µM; that for `Cc1noc(C)c1-c1cnc2c(c1)c(-c1ccccc1)cn2C(c1ccccn1)C1CCCC1` (stereo not shown) [P-0003, 4-(1-(cyclopentyl(pyridin-2-yl)methyl)-3-phenyl-1H-pyrrolo[2,3-b]pyridin-5-yl)-3,5-dimethylisoxazole] was 8 to 1000 µM.
The value for `Cc1noc(C)c1-c1cnc2c(c1)c(-c1ccc(C(=O)O)cc1)cn2C(c1ccccn1)C1CCCCC1` (stereo not shown) [P-0004, 4-(1-(cyclohexyl(pyridin-2-yl)methyl)-5-(3,5-dimethylisoxazol-4-yl)-1H-pyrrolo[2,3-b]pyridin-3-yl)benzoic acid] was 0.0001 to 1 µM; that for `COC(=O)c1ccc(-c2cn(S(=O)(=O)c3ccc(C)cc3)c3ncc(-c4c(C)noc4C)cc23)cc1` [P-0005, methyl 4-(5-(3,5-dimethylisoxazol-4-yl)-1-tosyl-1H-pyrrolo[2,3-b]pyridin-3-yl)benzoate] was 8 to 1000 µM.
Next, `Cc1noc(C)c1-c1cnc2c(c1)c(-c1ccnc(C(=O)O)c1)cn2S(=O)(=O)c1ccccc1` [P-0055, 4-(5-(3,5-dimethylisoxazol-4-yl)-1-(phenylsulfonyl)-1H-pyrrolo[2,3-b]pyridin-3-yl)picolinic acid]: 0.0001 to 1 µM.
Regarding `COc1cccc(Cn2cc(-c3cccc(C(=O)O)c3)c3cc(-c4c(C)noc4C)cnc32)c1` [P-0056, 3-(5-(3,5-dimethylisoxazol-4-yl)-1-(3-methoxybenzyl)-1H-pyrrolo[2,3-]pyridin-3-yl)benzoic acid], the concentration for half-maximal inhibition (IC50) was 0.0001 to 1 µM.
Next, `COc1cccc(Cn2cc(-c3ccnc(C(=O)O)c3)c3cc(-c4c(C)noc4C)cnc32)c1` [P-0057, 4-(5-(3,5-dimethylisoxazol-4-yl)-1-(3-methoxybenzyl)-1H-pyrrolo[2,3-b]pyridin-3-yl)picolinic acid]: 0.0001 to 1 µM; `Cc1noc(C)c1-c1cnc2c(c1)c(-c1cccc(C(=O)O)c1)cn2C(C1CC1)C1CC1` [P-0058, 3-(1-(dicyclopropylmethyl)-5-(3,5-dimethylisoxazol-4-yl)-1H-pyrrolo[2,3-b]pyridin-3-yl)benzoic acid]: 0.0001 to 1 µM.
The value for `Cc1noc(C)c1-c1cnc2c(c1)c(-c1cccc(C(=O)O)c1)cn2Cc1cccc(OC(F)(F)F)c1` [P-0059, 3-(5-(3,5-dimethylisoxazol-4-yl)-1-(3-(trifluoromethoxy)benzyl)-1H-pyrrolo[2,3-b]pyridin-3-yl)benzoic acid] was 0.0001 to 1 µM; that for `Cc1noc(C)c1-c1cnc2c(c1)c(-c1cccc(C(=O)O)c1)cn2Cc1cccc(F)c1` [P-0060, 3-(5-(3,5-dimethylisoxazol-4-yl)-1-(3-fluorobenzyl)-1H-pyrrolo[2,3-b]pyridin-3-yl)benzoic acid] was 0.0001 to 1 µM.
The value for `Cc1noc(C)c1-c1cnc2c(c1)c(-c1cccc(C(=O)O)c1)cn2Cc1cccc(Cl)c1` [P-0061, 3-(1-(3-chlorobenzyl)-5-(3,5-dimethylisoxazol-4-yl)-1H-pyrrolo[2,3-b]pyridin-3-yl)benzoic acid] was 0.0001 to 1 µM.
Take `Cc1cccc(Cn2cc(-c3cccc(C(=O)O)c3)c3cc(-c4c(C)noc4C)cnc32)c1` [P-0062, 3-(5-(3,5-dimethylisoxazol-4-yl)-1-(3-methylbenzyl)-1H-pyrrolo[2,3-b]pyridin-3-yl)benzoic acid]: the 50% inhibitory concentration (IC50) fell in the range of 0.0001 to 1 µM.
